pIC50: −log10 of the molar value.
Tests used:
[1] = target: Proto-oncogene tyrosine-protein kinase Src (Homo sapiens, UniProt P12931); experiment: In Vitor Src Tyrosine Kinase Activity Assay; conditions: 22 °C
Method: (§1) Kinase activity (Src-family kinases, Hck, Lyn, Fyn, and c-Src) and the effect of the molecules were determined by ProFluor Src-Family Kinase Assay Kit (Promega). […] The compounds were dissolved in 10% DMSO and tested at 1, 10 and 100 μM concentrations. Briefly, the molecules were mixed with a reaction buffer that included a specific substrate for Src-family kinases (R110), a control substrate and the kinase. The reaction was initiated by the addition of ATP. After incubating the 96-well reaction plate at 22°C for 1 h, protease solution was added to each well and the plate was incubated for 1 h.

[2] = target: Tyrosine-protein kinase Lyn (Homo sapiens, UniProt P07948); experiment: In Vitor Src Tyrosine Kinase Activity Assay; conditions: 22 °C
Method: as §1

Chain of Proto-oncogene tyrosine-protein kinase Src (P12931 2-536 limits assumed): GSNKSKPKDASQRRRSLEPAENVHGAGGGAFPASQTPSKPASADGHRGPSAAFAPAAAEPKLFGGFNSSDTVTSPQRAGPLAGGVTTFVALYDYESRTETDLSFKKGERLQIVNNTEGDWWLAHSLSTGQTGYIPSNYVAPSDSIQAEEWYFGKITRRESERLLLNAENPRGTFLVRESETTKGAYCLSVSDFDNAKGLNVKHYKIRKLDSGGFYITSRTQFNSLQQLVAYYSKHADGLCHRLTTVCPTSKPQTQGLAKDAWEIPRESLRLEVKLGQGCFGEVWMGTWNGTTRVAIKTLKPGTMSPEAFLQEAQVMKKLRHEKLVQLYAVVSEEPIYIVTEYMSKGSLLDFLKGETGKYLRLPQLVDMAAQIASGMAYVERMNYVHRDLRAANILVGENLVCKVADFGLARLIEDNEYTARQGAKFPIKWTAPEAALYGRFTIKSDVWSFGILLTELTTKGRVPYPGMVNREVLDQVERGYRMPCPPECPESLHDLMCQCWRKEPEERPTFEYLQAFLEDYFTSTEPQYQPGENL
Chain of Tyrosine-protein kinase Lyn (P07948 whole entry): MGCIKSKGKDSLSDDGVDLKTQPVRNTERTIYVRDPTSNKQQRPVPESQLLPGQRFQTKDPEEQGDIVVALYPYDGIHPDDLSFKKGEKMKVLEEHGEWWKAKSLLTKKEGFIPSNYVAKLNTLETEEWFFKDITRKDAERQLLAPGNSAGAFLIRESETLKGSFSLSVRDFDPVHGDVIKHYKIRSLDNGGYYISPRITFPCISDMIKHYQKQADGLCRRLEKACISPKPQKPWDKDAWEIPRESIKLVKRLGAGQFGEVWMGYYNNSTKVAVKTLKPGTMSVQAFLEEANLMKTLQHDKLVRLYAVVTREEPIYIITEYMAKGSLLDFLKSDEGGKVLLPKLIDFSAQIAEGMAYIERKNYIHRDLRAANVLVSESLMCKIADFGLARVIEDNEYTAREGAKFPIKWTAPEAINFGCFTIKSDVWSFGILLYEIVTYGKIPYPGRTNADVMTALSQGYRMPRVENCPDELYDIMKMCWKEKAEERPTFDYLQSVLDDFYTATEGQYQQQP

pIC50 [1]	pIC50 [2]	Structure (SMILES)
4.68		COc1ccc(CCCC(=O)NCc2c[nH]c3nc(N)[nH]c(=O)c23)cc1OC [N-((2-Amino-4-oxo-4,7-dihydro-3H-pyrrolo[2,3-d]pyrimidin-5-yl)methyl)-4-(3,4-dimethoxyphenyl)butanamide (5)]
9.40		COc1cccc(-c2cn(-c3ccc(CCN4CCC(O)CC4)cc3)c3ncnc(N)c23)c1 [CGP77675]
	9.52	CN1CCN(C2CCC(n3cc(-c4ccc(Oc5ccccc5)cc4)c4c(N)ncnc43)CC2)CC1 (centres undefined) [A-419259]
4.80		Cc1ccc(C(=O)NCc2c[nH]c3nc(N)[nH]c(=O)c23)s1 [N-[(2-Amino-4-oxo-4,7-dihydro-3H-pyrrolo[2,3-d]pyrimidin-5-yl)methyl]-5-methylthiophene-2-carboxamide (7)]
